Data set [1] deals with C. urealyticum CIP-I-2126 strain. The data set is described as follows: 2-EHN degradation with a non-biodegradable hydrophobic liquid phase (respirometer). It counts as cell-based, Corynebacterium urealyticum. Particulars: per flask containing 500 mL medium at 500 mg/L 2-EHN. As for the experimental part:
The capacity for degradation of 2-EHN by the C. urealyticum CIP-I-2126 strain in the presence of a non-biodegradable hydrophobic liquid phase used as a substrate reservoir is studied. The cultures were carried out at 30° C. with a respirometer so as to determine the kinetic characteristics of the biodegradation.
Two non-biodegradable liquid phases were tested: 2,2,4,4,6,8,8-heptamethylnonane (HMN) and silicone oil (Table 3).

The subject of another data set is Daphnia. Particulars: acute toxicity; cited from earlier work.
For data set [2] the following is noted: cited from earlier work.
The next data set concerns zebrafish. Conditions: acute toxicity; cited from earlier work.
For data set [3] the following is noted: cited from earlier work. The source holds these as a separate data set.

In general, Solubility refers to how much of the substance goes into solution per volume. For the molecule `CCCCC(CC)CO[N+](=O)[O-]` (stereo not shown) [2-EHN, 2-ethylhexyl nitrate], the figures for the “MAXIMUM DEGRADATION RATE (MMOLO2/J)” value in data set [1] (liquid phase added: HMN), in data set [1] (liquid phase added: Silicone oil) and in data set [1] (liquid phase added: none) were 5.3 MMOLO2/J, 5.8 MMOLO2/J and 0.3 MMOLO2/J, respectively. In addition, the “LC50 (50% lethal concentrations)” value in the data set on Daphnia and in the data set with zebrafish was “higher than its water solubility” throughout. The “Vapour pressure at 20° C.” value in data set [2] is given as 27 Pa. Moreover, the “Solubility at 20° C.” value in data set [3] was 12.6 µg/mL.
